One assay has as its system primed T cells. Kind of assay: proliferation of TCR-stimulated primed T cells (3H-thymidine incorporation). The conditions noted are these: primed T cells + anti-CD3ε 2C11, α-MSH present, 3H-thymidine at 24 h, counted at 48 h. The class given is cell-based, mouse (BALB/c).
The subject of another assay is primed Th1 cells. Nature of the assay: in vitro regulatory T cell activity assay (IFN-γ of freshly activated primed Th1 cells in coculture). The class given is cell-based, mouse (BALB/c). How it is done:
Assay For In Vitro Regulatory T Cell Activity. The α-MSH-treated TCR-stimulated T cells, as described above, were cultured for 48 hours. The plate was spun down at 250×g for 10 minutes and supernatant discarded. Freshly isolated, enriched in vivo primed Th1 cells (4×10^6 cells/ml) mixed with 2C11 (1 μg/ml) were added (200 μl) to the wells of the α-MSH pre-treated, TCR-stimulated T cells and incubated for 48 hours. The culture supernatant was assayed for IFN-γ by sandwich ELISA. For long term cultures, primed T cells were TCR-stimulated in the presence of α-MSH for 48 hours. The plate was centrifuged and supernatant was exchanged for 200 μl of 2C11 (1 μg/ml) in fresh media, no x-MSH. The cultures were incubated for 72 hours and the conditioned media was again exchanged for fresh media and 2C11 antibody. The cultures were incubated for an additional 48 hours, centrifuged, supernatant discarded, and added were fresh in vivo primed Th1 cells and 2C11 antibody. Soluble TGF-β receptor II (sTGF-βRII, R&D Systems) was added to some of the cultures. These cultures were incubated for 48 hours and the culture supernatant was assayed for IFN-γ by sandwich ELISA.
Primed T cells (4×10^5 cells) were enriched and activated with anti-CD3 in the presence (α-MSH+anti-CD3) or absence (+anti-CD3) of α-MSH (30 pg/ml). After 48 hours of incubation the cells were mixed with freshly enriched primed Th1 cells (4×10^5 cells) and anti-CD3 antibody and cultured for 48 hours. The culture supernatant was assayed for IFN-γ by sandwich ELISA. Results are presented as IFN-γ pg/ml±SEM of eight independent experiments.
In addition, T cells initial TCR-stimulated in the presence of α-MSH and subsequently restimulated twice (Day 2 and Day 5) with anti-TCR antibody in the absence of α-MSH, still suppressed IFN-γ production by freshly activated primed Th1 cells (FIG. 6). […] Primed T cells (4×10^5 cells) were enriched and activated with anti-CD3 antibody in the presence of 30 pg/ml α-MSH (α-MSH+anti-CD3) or absence of α-MSH (+anti-CD3). After 48 hours of incubation the cells were centrifuged and resuspended in fresh media with anti-CD3 antibodies and incubated for 72 hours (day 5). The cells were again washed and re-stimulated with anti-CD3 and incubated for an additional 48 hours (day 7). After the final incubation the treated T cells (4×10^5 cells) were mixed with freshly enriched primed Th1 cells (4×10^5 cells) and anti-CD3 antibody and cultured for 48 hours. The culture supernatant was assayed for IFN-γ by sandwich ELISA. Results are presented as IFN-γ pg/ml±SEM of eight independent experiments. […] Therefore, α-MSH mediates induction of functionally active, regulatory Th3 cells.
TGF-β and α-MSH induce regulatory T cell activity. Primed T cells were TCR-stimulated in the presence or absence of 30 pg/ml α-MSH with TGF-β1 or TGF-β2 (5.0 ng/ml) added 4 hours after TCR-stimulation. The treated T cells (Regulatory T cells) were added to cultures of freshly activated primed T cells. Culture supernatants were assayed for IFN-γ 48 hours after addition of treated T cells. Data are presented as percent suppression±SEM of IFN-γ produced by freshly activated T cells with no added regulatory cells, from eight independent experiments.

Entries after “also recorded” stand apart in the source; their conditions may differ. No end group written: not given here.

As to “α-melanocyte stimulating hormone (SYSMEHFRWGKPV; not fully specified; ends and bridges not checked; UniProt P01189 138-150, looked up) [α-MSH, synthetic α-MSH (Peninsula Laboratories); thirteen-amino acid neuropeptide derived from POMC]”, the “TCR-stimulated T cell proliferation” value in the assay on primed T cells is reported as “no affect; also recorded: no effect”. Further, the “IFN-γ in cocultures with T cells initially activated in the presence of α-MSH, long term” value with primed Th1 cells (α-MSH 30 pg/ml only at first stimulation, restimulated Day 2 and Day 5 without α-MSH, then coculture 48 h) was “significantly (p=0.05) suppressed”. Also, the “induction of regulatory T cell activity (suppression of IFN-γ of other Th1 cells), factor individually” value in the assay with primed Th1 cells (α-MSH 30 pg/ml or TGF-β 5.0 ng/ml) is reported as “induced regulatory T cell activity”.

Source of the values: US20060127400A1, “Activation of regulatory T cells by alpha-melanocyte stimulating hormone” (THE SCHEPENS EYE RESEARCH INSTITUTE, INC., priority 1999, published 2006).
